≈ marks a conversion by molar mass, not a printed value.
Key:
Format in all cases: functional
Candida albicans [1] = assay: Antimicrobial activity against Candida albicans DSM 70014 after 48 hr by two-fold serial broth dilution method; conditions: DSM 70014, 48 h
Bacillus subtilis = assay: Antimicrobial activity against Bacillus subtilis ATCC 6633 after 48 hr by two-fold serial broth dilution method; conditions: ATCC 6633, 48 h
Candida albicans [2] = assay: Antimicrobial activity against Candida albicans DSM 70014 after 48 hr by two-fold serial broth dilution method relative to clotrimazole
Escherichia coli = assay: Antimicrobial activity against Escherichia coli ATCC 11775 after 48 hr by two-fold serial broth dilution method; conditions: ATCC 11775, 48 h
Staphylococcus aureus [3] = assay: Antimicrobial activity against Staphylococcus aureus DSM 1104 after 48 hr by two-fold serial broth dilution method; conditions: DSM 1104, 48 h
Staphylococcus aureus [4] = assay: Antimicrobial activity against Staphylococcus aureus DSM 1104 after 48 hr by two-fold serial broth dilution method relative to ampicillin
Pseudomonas aeruginosa [5] = assay: Antimicrobial activity against Pseudomonas aeruginosa ATCC 10145 after 48 hr by two-fold serial broth dilution method; conditions: ATCC 10145, 48 h
Pseudomonas aeruginosa [6] = assay: Ratio of ampicillin MIC to compound MIC for Pseudomonas aeruginosa ATCC 10145 after 48 hr by two-fold serial broth dilution method
HOP-92 = assay: Growth inhibition of Homo sapiens (human) HOP92 cells at 10 uM after 48 hr by SRB assay; conditions: HOP-92, 48 h, read-out: GI

COc1ccc(OC)c(/C=C/c2nnc(SCC(=O)c3cc(O)ccc3O)n2-c2ccc(C)cc2)c1
MFC (Candida albicans [1]): 25 µg/mL (≈ 49.6 µM) | MIC (Candida albicans [1]): 12.5 µg/mL (≈ 24.8 µM) | MBC (Bacillus subtilis): 50 µg/mL (≈ 99.3 µM) | MIC (Bacillus subtilis): 25 µg/mL (≈ 49.6 µM) | Activity (Candida albicans [2]): 40% | MBC (Escherichia coli): 50 µg/mL (≈ 99.3 µM) | MIC (Escherichia coli): 25 µg/mL (≈ 49.6 µM) | MBC (Staphylococcus aureus [3]): 25 µg/mL (≈ 49.6 µM) | MIC (Staphylococcus aureus [3]): 12.5 µg/mL (≈ 24.8 µM) | Activity (Staphylococcus aureus [4]): 40% | MBC (Pseudomonas aeruginosa [5]): 50 µg/mL (≈ 99.3 µM) | MIC (Pseudomonas aeruginosa [5]): 50 µg/mL (≈ 99.3 µM)

COc1ccc(OC)c(/C=C/c2nnc(Nc3ccccc3)o2)c1
MFC (Candida albicans [1]): 50 µg/mL (≈ 155 µM) | MIC (Candida albicans [1]): 50 µg/mL (≈ 155 µM) | MBC (Bacillus subtilis): 25 µg/mL (≈ 77.3 µM) | MIC (Bacillus subtilis): 12.5 µg/mL (≈ 38.7 µM) | Ratio (Pseudomonas aeruginosa [6]): 4 | MBC (Escherichia coli): 50 µg/mL (≈ 155 µM) | MIC (Escherichia coli): 50 µg/mL (≈ 155 µM) | MBC (Staphylococcus aureus [3]): 50 µg/mL (≈ 155 µM) | MIC (Staphylococcus aureus [3]): 25 µg/mL (≈ 77.3 µM) | inhibition of growth at 10 µM (HOP-92): 37.5% | MBC (Pseudomonas aeruginosa [5]): 25 µg/mL (≈ 77.3 µM) | MIC (Pseudomonas aeruginosa [5]): 12.5 µg/mL (≈ 38.7 µM)
